Test results from PubChem BioAssay (NCI).
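48-hour exposure; five concentrations; linearly interpolated endpoints. Definition used: TGI = concentration required for complete inhibition of growth.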

How the values were obtained:
Experiment in all cases: inhibition of tumour cell growth, NCI panel, 48 h
HCC-2998 colon = tested on: HCC-2998 colon
HOP-62 NSCLC = tested on: HOP-62 NSCLC
SNB-75 CNS = tested on: SNB-75 CNS
UO-31 renal = tested on: UO-31 renal
DLD-1 colon = tested on: DLD-1 colon
SNB-78 CNS = tested on: SNB-78 CNS
HT29 colon = tested on: HT29 colon
IGROV1 ovarian = tested on: IGROV1 ovarian
CCRF-CEM leukemia = tested on: CCRF-CEM leukemia
M14 melanoma = tested on: M14 melanoma
DMS 114 small cell lung = tested on: DMS 114 small cell lung
M19-MEL melanoma = tested on: M19-MEL melanoma
ACHN renal = tested on: ACHN renal
U251 CNS = tested on: U251 CNS
SK-MEL-5 melanoma = tested on: SK-MEL-5 melanoma
A498 renal = tested on: A498 renal
NCI-H460 lung = tested on: NCI-H460 lung
OVCAR-3 ovarian = tested on: OVCAR-3 ovarian
OVCAR-4 ovarian = tested on: OVCAR-4 ovarian
EKVX NSCLC = tested on: EKVX NSCLC
SNB-19 CNS = tested on: SNB-19 CNS
HL-60(TB) leukemia = tested on: HL-60(TB) leukemia
RXF-631 renal = tested on: RXF-631 renal
CAKI-1 renal = tested on: CAKI-1 renal
OVCAR-5 ovarian = tested on: OVCAR-5 ovarian
LXFL 529 NSCLC = tested on: LXFL 529 NSCLC
K-562 leukemia = tested on: K-562 leukemia
NCI-H23 lung = tested on: NCI-H23 lung
NCI-H226 lung = tested on: NCI-H226 lung
SK-OV-3 ovarian = tested on: SK-OV-3 ovarian
TK-10 renal = tested on: TK-10 renal
SK-MEL-2 melanoma = tested on: SK-MEL-2 melanoma
NCI-H522 lung = tested on: NCI-H522 lung
SF-295 CNS = tested on: SF-295 CNS
HOP-92 NSCLC = tested on: HOP-92 NSCLC
SK-MEL-28 melanoma = tested on: SK-MEL-28 melanoma
UACC-257 melanoma = tested on: UACC-257 melanoma
HCT-116 colon = tested on: HCT-116 colon
KM12 colon = tested on: KM12 colon
SN12C renal = tested on: SN12C renal
MOLT-4 leukemia = tested on: MOLT-4 leukemia
UACC-62 melanoma = tested on: UACC-62 melanoma
HCT-15 colon = tested on: HCT-15 colon
KM20L2 colon = tested on: KM20L2 colon
A549 NSCLC = tested on: A549 NSCLC
MALME-3M melanoma = tested on: MALME-3M melanoma
DMS 273 small cell lung = tested on: DMS 273 small cell lung
HOP-18 NSCLC = tested on: HOP-18 NSCLC
SF-268 CNS = tested on: SF-268 CNS
LOX IMVI melanoma = tested on: LOX IMVI melanoma
SW-620 colon = tested on: SW-620 colon
RPMI-8226 leukemia = tested on: RPMI-8226 leukemia
RXF 393 renal = tested on: RXF 393 renal
OVCAR-8 ovarian = tested on: OVCAR-8 ovarian
COLO 205 colon = tested on: COLO 205 colon
SR leukemia = tested on: SR leukemia
786-0 renal = tested on: 786-0 renal
SF-539 CNS = tested on: SF-539 CNS
XF 498 CNS = tested on: XF 498 CNS

CC(Cl)(/C=C/Cl)C(Cl)/C=C/C(Cl)(CCl)CBr (stereo not given)
TGI (HCC-2998 colon): 33.2 µM
TGI (HOP-62 NSCLC): 42.8 µM
TGI (SNB-75 CNS): 14.5 µM
TGI (UO-31 renal): 28.6 µM
TGI (DLD-1 colon): 12.5 µM
TGI (SNB-78 CNS): 4.95 µM
TGI (HT29 colon): 4.66 µM
TGI (IGROV1 ovarian): 25.1 µM
TGI (CCRF-CEM leukemia): 11.3 µM
TGI (M14 melanoma): 7.89 µM
TGI (DMS 114 small cell lung): 5.32 µM
TGI (M19-MEL melanoma): 13.5 µM
TGI (ACHN renal): 18.1 µM
TGI (U251 CNS): 8.37 µM
TGI (SK-MEL-5 melanoma): 25.1 µM
TGI (A498 renal): 18.4 µM
TGI (NCI-H460 lung): 15.4 µM
TGI (OVCAR-3 ovarian): 25.3 µM
TGI (OVCAR-4 ovarian): 9.36 µM
TGI (EKVX NSCLC): > 77.3 µM
TGI (SNB-19 CNS): 27.3 µM
TGI (HL-60(TB) leukemia): 5.32 µM
TGI (RXF-631 renal): 4.05 µM
TGI (CAKI-1 renal): 28.1 µM
TGI (OVCAR-5 ovarian): 29.5 µM
TGI (LXFL 529 NSCLC): 2.5 µM
TGI (K-562 leukemia): 14.2 µM
TGI (NCI-H23 lung): 7.16 µM
TGI (NCI-H226 lung): 22.9 µM
TGI (SK-OV-3 ovarian): 30.9 µM
TGI (TK-10 renal): 20.5 µM
TGI (SK-MEL-2 melanoma): 19.8 µM
TGI (NCI-H522 lung): 3.33 µM
TGI (SF-295 CNS): 20.2 µM
TGI (HOP-92 NSCLC): 4.01 µM
TGI (SK-MEL-28 melanoma): 8.27 µM
TGI (UACC-257 melanoma): 7.02 µM
TGI (HCT-116 colon): 3.39 µM
TGI (KM12 colon): 20.8 µM
TGI (SN12C renal): 12.5 µM
TGI (MOLT-4 leukemia): 3.36 µM
TGI (UACC-62 melanoma): 5.2 µM
TGI (HCT-15 colon): 4.24 µM
TGI (KM20L2 colon): 23.9 µM
TGI (A549 NSCLC): 47.3 µM
TGI (MALME-3M melanoma): 13.7 µM
TGI (DMS 273 small cell lung): 17.1 µM
TGI (HOP-18 NSCLC): 11.6 µM
TGI (SF-268 CNS): 11.3 µM
TGI (LOX IMVI melanoma): 4.5 µM
TGI (SW-620 colon): 8 µM
TGI (RPMI-8226 leukemia): 7.31 µM
TGI (RXF 393 renal): 2.92 µM
TGI (OVCAR-8 ovarian): 13.2 µM
TGI (COLO 205 colon): 4.94 µM
TGI (SR leukemia): 2.07 µM
TGI (786-0 renal): 10.8 µM

O=C(O)CN(c1ccc(Cl)cc1)S(=O)(=O)c1ccccc1
TGI (SNB-75 CNS): > 100 µM
TGI (UO-31 renal): > 100 µM
TGI (DLD-1 colon): > 100 µM
TGI (HT29 colon): > 100 µM
TGI (IGROV1 ovarian): > 100 µM
TGI (CCRF-CEM leukemia): > 100 µM
TGI (M14 melanoma): > 100 µM
TGI (M19-MEL melanoma): > 100 µM
TGI (ACHN renal): > 100 µM
TGI (U251 CNS): > 100 µM
TGI (SK-MEL-5 melanoma): > 100 µM
TGI (A498 renal): > 100 µM
TGI (NCI-H460 lung): > 100 µM
TGI (OVCAR-3 ovarian): > 100 µM
TGI (OVCAR-4 ovarian): > 100 µM
TGI (EKVX NSCLC): > 100 µM
TGI (SNB-19 CNS): > 100 µM
TGI (HL-60(TB) leukemia): > 100 µM
TGI (RXF-631 renal): > 100 µM
TGI (CAKI-1 renal): > 100 µM
TGI (OVCAR-5 ovarian): > 100 µM
TGI (LXFL 529 NSCLC): > 100 µM
TGI (K-562 leukemia): > 100 µM
TGI (NCI-H23 lung): > 100 µM
TGI (NCI-H226 lung): > 100 µM
TGI (SK-OV-3 ovarian): > 100 µM
TGI (TK-10 renal): > 100 µM
TGI (SK-MEL-2 melanoma): > 100 µM
TGI (NCI-H522 lung): > 100 µM
TGI (SF-295 CNS): > 100 µM
TGI (HOP-92 NSCLC): > 100 µM
TGI (SK-MEL-28 melanoma): > 100 µM
TGI (UACC-257 melanoma): > 100 µM
TGI (KM12 colon): > 100 µM
TGI (SN12C renal): > 100 µM
TGI (MOLT-4 leukemia): > 100 µM
TGI (UACC-62 melanoma): > 100 µM
TGI (HCT-15 colon): > 100 µM
TGI (KM20L2 colon): > 100 µM
TGI (A549 NSCLC): > 100 µM
TGI (MALME-3M melanoma): > 100 µM
TGI (SF-539 CNS): > 100 µM
TGI (DMS 273 small cell lung): > 100 µM
TGI (HOP-18 NSCLC): > 100 µM
TGI (SF-268 CNS): > 100 µM
TGI (LOX IMVI melanoma): > 100 µM
TGI (SW-620 colon): > 100 µM
TGI (RPMI-8226 leukemia): > 100 µM
TGI (RXF 393 renal): > 100 µM
TGI (OVCAR-8 ovarian): > 100 µM
TGI (COLO 205 colon): > 100 µM
TGI (786-0 renal): > 100 µM
TGI (XF 498 CNS): > 100 µM
